Experimental data from patent US10834950B2, “Organic compounds” (GIVAUDAN SA, priority 2013, dated 2020).

Key:
[1] = Milk drink (semi skim milk) tasting by panel; conditions: 5 ppm added to semi skim milk drink
[2] = Umami base flavour (aqueous NaCl, MSG, ribonucleotides) tasting by panel
[3] = Beef bouillon tasting by a panel of experienced tasters; conditions: 40 ppb added to beef bouillon
Experimental: A beef bouillon was prepared using bouillon cubes obtained from a local supermarket.

[4] = Diluted soy sauce tasting by panel; conditions: 5 ppm added to diluted soy sauce
[5] = 5 ppm added to umami base flavour

Structure (SMILES)	taste of milk drink compared to the reference (panel) [1]	taste of umami base compared to the reference (panel) [2, 5]	taste of bouillon compared to the reference (panel) [3]	other results
CCCCCC/C=C\CCCC(=O)NC(Cc1c[nH]c2ccccc12)C(=O)O (stereo not drawn) [(Z)-2-(dodec-5-enamido)-3-(1H-indol-3-yl)propanoic acid]	slightly increased creamy than the reference	more umami than the reference	–	–
CCCCCC/C=C\CCCC(=O)NC(Cc1ccc(O)cc1)C(=O)O (stereo not drawn) [Example 2, (Z)-2-(Dodec-5-enamido)-3-(4-hydroxyphenyl)propanoic acid]	–	–	slightly more umami, slightly more bitter and sweeter than the reference	–
CCCCCC/C=C\CCCC(=O)NC(Cc1ccccc1)C(=O)O (stereo not drawn) [Example 1, (Z)-2-(Dodec-5-enamido)-3-phenylpropanoic acid]	–	–	more umami, slightly more sweet, and the overall flavor profile lasts longer than the reference	–
CCCCCCCCCCCC(=O)NC(Cc1ccccc1)C(=O)O (stereo not drawn) [Example 3, 2-(Dodecanoylamino)-3-phenylpropanoic acid]	–	–	–	taste of umami base compared to the reference (panel) ([2]; 50 ppm added to umami base flavour): more umami, and thicker, possessed a lot of mouthfeel and a nice body, and provided a cleaner taste than the reference
CCCCCCCCCCCCCC(=O)NC(Cc1c[nH]c2ccccc12)C(=O)O (stereo not drawn) [3-(1H-indol-3-yl)-2-tetradecanamidopropanoic acid]	very creamy aftertaste, and a nice and slightly dryness at the front compared to the reference	more umami than the reference	–	taste of soy sauce compared to the reference (panel) [4]: more mouthfeel, and fuller compared to the reference
CCCCCCCCCCCC(=O)NC(Cc1c[nH]c2ccccc12)C(=O)O (stereo not drawn) [2-(dodecanoylamino)-3-(1H-indol-3-yl)propanoic acid]	–	–	–	taste of umami base compared to the reference (panel) ([2]; 20 ppm added to umami base flavour): more fatty mouthfeel than the reference
